Values joined by “and” are separate entries in the source; they are usually repeats but may differ in a detail not shown here. Identical values can stand only once.
What was measured:
CD16a158V [1] = target: T1, CD16a158V (Homo sapiens, UniProt P08637, F176V); assay: Biotinylated Ligand ELISA Assay; type: binding; details: Biotinylated CD16a protein at 10 nM
Protocol: (§1) Coat ELISA plates (Costar 3922) using Neutravidin (Thermo 31000) at 5 μg/ml (100 μl/well) for 1 hour at 37° C. Plates were washed 4 times with PBST (PBS, 0.05% Tween 20-200 μl, 1 minute/wash) then blocked using 200 μl 5% bovine serum albumin (BSA, Heat Shock, Fraction V-American Bio AB01088-00100) in PBST for 2 hours at 25° C. with moderate shaking. BSA was removed and plates were washed. Biotinylated ligands diluted in PBSTB (PBST+0.1% BSA) were then added (100 μl/well) and incubated for 1 hour at 25° C. with gentle shaking. Ligands were removed and plates were washed. Any remaining unoccupied neutravidin binding sites were blocked by adding 100 μM Biotin (Fisher BP232-1) (100 μl/well) and incubated for 1 hour at 25° C. with gentle shaking. Plates were then washed. […] Protein was removed and plates were washed. Streptavidin-HRP (Invitrogen 434323) diluted 1:5000 in PBSTB was added (100 μl/well) and incubated for 1 hour at 25° C. with gentle shaking. Wash plates. Substrate (Super Signal ELISA Pico Chemiluminescent Substrate-Thermo 37069) was added (100 μl/well) and plates were incubated for 5 minutes at 25° C. with gentle shaking. Luminescence was then measured on the Biotek Synergy H1 microplate reader.

CD16a158F [2] = target: T2, CD16a158F (Homo sapiens, UniProt P08637); assay: Biotin ELISA, interaction with various receptors (Example 55); type: binding; details: three replicate values per compound
Protocol: as §1
(§2) Using similar methods as Examples 47 or 53, interactions with a number of receptors were measured. In some embodiments, “stock” is antibody only, and “control” is an antibody that went through the same procedure except using DMSO only as opposed to a compound. When contacted with targeting moieties such as antibodies in the Examples, compounds, e.g., I-95, I-96, etc. can react through their reactive groups

CD16a158V [3] = target: T1, CD16a158V; assay: as above; type: binding; details: three replicate values per compound
Protocol: as §1, §2

CD32a H167 = target: T3, CD32a H167 (Homo sapiens, UniProt P12318); assay: as above; type: binding; details: three replicate values per compound
T3 sequence (P12318 36-218 limits assumed): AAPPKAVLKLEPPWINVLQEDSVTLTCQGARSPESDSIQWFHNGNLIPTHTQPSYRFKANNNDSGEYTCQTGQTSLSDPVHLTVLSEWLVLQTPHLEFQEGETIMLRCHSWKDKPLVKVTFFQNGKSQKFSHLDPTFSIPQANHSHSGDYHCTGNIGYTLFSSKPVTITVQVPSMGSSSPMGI
Protocol: as §1, §2

CD32a-R167 = assay: as above; type: binding; details: three replicate values per compound
Protocol: as §1, §2

CD32b = target: T4, CD32b (Homo sapiens, UniProt P31994); assay: as above; type: binding; details: three replicate values per compound
T4 sequence (P31994 43-310): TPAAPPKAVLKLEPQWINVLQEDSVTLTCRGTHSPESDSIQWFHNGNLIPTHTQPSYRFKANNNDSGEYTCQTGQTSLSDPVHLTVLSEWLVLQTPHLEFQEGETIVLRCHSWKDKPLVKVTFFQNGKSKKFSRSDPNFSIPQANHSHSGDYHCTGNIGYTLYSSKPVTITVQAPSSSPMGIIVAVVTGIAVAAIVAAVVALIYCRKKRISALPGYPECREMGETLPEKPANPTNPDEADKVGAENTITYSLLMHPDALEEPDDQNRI
Protocol: as §1, §2

CD3ed = CD3ed (Homo sapiens, UniProt P04234+P07766); assay: as above; type: binding; details: three replicate values per compound
Protocol: as §1, §2

CD64 = CD64 (Homo sapiens, UniProt P12314); assay: as above; type: binding; details: three replicate values per compound
Protocol: as §1, §2

[4] = Biotin ELISA, No Protein (Example 55); type: binding; details: three replicate values per compound
Protocol: as §1, §2

CD16a158F [5] = target: T2, CD16a158F; assay: Biotinylated Ligand ELISA Assay; type: binding; set-up: purchased Acro Biosystems CDA-H82E8; details: Biotinylated CD16a protein at 10 nM
Protocol: as §1

primary monocytes = assay: ADCP assay using fresh primary monocytes; type: cell-based, human; details: beads loaded with test compound at 50 uM; 37C for 18 hrs
Protocol: (§3) Biotinylated fluorescent beads (Invitrogen, cat #P35372) were thoroughly mixed by vortexing for 1 min. Ten microliters of supplied bead suspension per treatment type were dispensed in Eppendorf tubes, and washed with 1 ml PBS […], then re-suspended in 500 uL of 1% BSA in PBS. Test compounds were added to bead suspensions to a final concentration of 50 uM, and biotinylated human IgG whole molecule (Rockland 009-0602) final concentration of 20 ug/mL.
(§4) Tubes were incubated at room temperature for 1 hr on a rocking platform.
(§5) Following incubation, beads were pelleted in a microcentrifuge at 12,000 g for 5 minutes at room temperature. Supernatants were carefully aspirated and beads were washed 5 times by resuspending in 1 ml of PBS 1% BSA, and centrifuging as described above. Finally, beads were resuspended in 500 ul of PBS 1% BSA and used in ADCP assay.
PBMC, freshly isolated from whole blood (Bioreclamation IVT0) using Ficoll-Paque density centrifugation were resuspended in serum-free, supplemented RPMI at 2×10^6 cells/mL.
Ten milliliters of the resulting cell suspension was seeded into 75-cm^2 tissue culture flask (Denville Scientific TC9341) and incubated 2-3 hr at 37° C. 5% CO2 to allow cell adhesion. Following incubation, media was decanted and surface of the flask was carefully washed twice, each time with 10 ml serum-free, supplemented RPMI to remove any residual non-adherent cells. To remove adherent cells, 10 mL of ice-cold 2.5 mM EDTA/PBS solution was added for 10 min on ice. Cells were transferred to a 15-ml conical tube and centrifuge 10 min at 300×g, room temperature, to remove the EDTA/PBS solution. Monocytes were then resuspended in RPMI 10% FCS at 5×10^5 cells/mL to be used in ADCP assay. Monocyte purity was assessed by staining cells with antibodies to human CD3 FITC (Biolegend 300306), CD19 PeCy7 (Biolegend 302216), CD14 BV421 (BD Biosciences, 565283), and CD16 (Biolegend 302046).
(§6) Monocytes or THP-1 cells (TIB-202 ATCC) were seeded into 96 well round bottom 96 well plates at the density of 10^5 cells per well in 200 ul, and 10 uL of fluorescent bead suspension prepared as described above was added to each well. Well contents were mixed by pipetting up and down using a multichannel pipet, and plates were incubated at 37C for 18 hrs. After incubation, well contents were transferred into flat bottom black 96 well plates (Costar #3358) and centrifuged for 2 minutes at 300 g to allow for better visualization of the cells. Images were taken using Zoe fluorescent cell imager (Biorad).

[6] = test system: CD16a negative THP1 cells; assay: ADCP assay using THP-1 cells; type: cell-based; details: beads loaded with test compound at 50 uM; 37C for 18 hrs
Protocol: as §3, §4, §5, §6

CD3ed, sequence (P07766 23-126 limits assumed): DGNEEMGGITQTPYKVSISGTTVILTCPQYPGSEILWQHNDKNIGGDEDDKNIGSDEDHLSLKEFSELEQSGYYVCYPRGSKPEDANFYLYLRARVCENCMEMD
CD3ed, sequence (P04234 22-105 limits assumed): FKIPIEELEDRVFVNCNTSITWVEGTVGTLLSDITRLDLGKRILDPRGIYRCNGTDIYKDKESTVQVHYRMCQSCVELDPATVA
T2 sequence (P08637 17-208 limits assumed): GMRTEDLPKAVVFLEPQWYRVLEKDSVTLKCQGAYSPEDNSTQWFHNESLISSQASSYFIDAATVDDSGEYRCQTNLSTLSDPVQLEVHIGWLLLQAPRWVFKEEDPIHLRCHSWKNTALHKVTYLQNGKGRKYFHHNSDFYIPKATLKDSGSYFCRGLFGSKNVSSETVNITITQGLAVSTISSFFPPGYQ
CD64, sequence (P12314 16-374): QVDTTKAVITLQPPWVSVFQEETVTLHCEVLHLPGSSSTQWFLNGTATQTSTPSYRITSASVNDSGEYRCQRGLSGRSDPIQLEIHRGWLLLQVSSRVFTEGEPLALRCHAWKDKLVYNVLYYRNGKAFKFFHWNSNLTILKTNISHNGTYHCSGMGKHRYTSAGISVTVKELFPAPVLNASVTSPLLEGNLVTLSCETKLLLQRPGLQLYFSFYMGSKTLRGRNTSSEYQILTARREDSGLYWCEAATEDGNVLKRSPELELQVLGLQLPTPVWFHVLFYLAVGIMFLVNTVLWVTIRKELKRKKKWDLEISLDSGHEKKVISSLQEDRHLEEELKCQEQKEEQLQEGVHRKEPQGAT
T1 sequence (P08637 17-208 F176V): as the sequence (P08637 17-208 limits assumed) above, with F160V counted along it

Compound	Biotinylated Ligand ELISA-CD16a158V Binding (RLU) (CD16a158V [1])	Biotin ELISA Results CD16a-158F (CD16a158F [2])	Biotin ELISA Results CD16a-158V (CD16a158V [3])	Biotin ELISA Results CD32a-H167 (CD32a H167)	Biotin ELISA Results CD32a-R167 (CD32a-R167)	Biotin ELISA Results CD32b (CD32b)	Biotin ELISA Results CD3ed (CD3ed)	Biotin ELISA Results CD64 (CD64)	Biotin ELISA Results No Protein [4]	Biotinylated Ligand ELISA-CD16a158F Binding (RLU) (CD16a158F [5])	ACDP (primary monocytes)-normalized phagocytosis score (primary monocytes)	ACDP (CD16a negative THP1 cells)-normalized phagocytosis score [6]
O=C(CCCC[C@@H]1SC[C@@H]2NC(=O)N[C@@H]21)NCCOCCOCCOCCOCCOCCOCCOCCOCCn1cc(-c2ccc(NC(=O)N3CCC(N4CCN(Cc5ccccc5)C4=O)CC3)cc2)nn1 [Compound I-15, N-{4-[1-(26-{5-[(3aS,4S,6aR)-2-oxo-hexahydro-1H-thieno[3,4-d]imidazol-4-yl]pentanamido}-3,6,9,12,15,18,21,24-octaoxahexacosan-1-yl)-1H-1,2,3-triazol-4-yl]phenyl}-4-(3-benzyl-2-oxoimidazolidin-1-yl)piperidine-1-carboxamide]	B (a relative luminescence value (RLU) of 10,000-100,000)	34842 and 7323* and 23569	3136 and 3515 and 1518	5263 and 6063 and 4354	11818 and 37679* and 11737	10786 and 29882* and 8282	7926 and 1921 and 46693*	43288 and 127129* and 49818	3931 and 5958 and 23315*	B (a relative luminescence value (RLU) of 10,000-100,000)		
O=C(CCCC[C@@H]1SC[C@@H]2NC(=O)N[C@@H]21)NCCOCCOCCOCCOCCOCCOCCOCCOCCn1cc(-c2cccc(NC(=O)N3CCC4(CC3)NC(=O)N(Cc3ccccc3)C4=O)c2)nn1 [Compound I-16, N-{3-[1-(26-{5-[(3aS,4S,6aR)-2-oxo-hexahydro-1H-thieno[3,4-d]imidazol-4-yl]pentanamido}-3,6,9,12,15,18,21,24-octaoxahexacosan-1-yl)-1H-1,2,3-triazol-4-yl]phenyl}-3-benzyl-2,4-dioxo-1,3,8-triazaspiro[4.5]decane-8-carboxamide]	D (a relative luminescence value (RLU) of 1-1,000)	19818 and 20544 and 2349*	2543 and 5076 and 2414	3600 and 3315 and 3632	8460 and 31058 and 13897	3985 and 5047 and 3438	3087 and 4575 and 2480	40426 and 53812 and 48052	4636 and 2801 and 5055	D (a relative luminescence value (RLU) of 1-1,000)	B (a normalized phagocytosis score of 1.5-2.0)	
O=C(CCCC[C@@H]1SC[C@@H]2NC(=O)N[C@@H]21)NCCOCCOCCOCCOCCOCCOCCOCCOCCn1cc(-c2ccc(NC(=O)N3CCC4(CC3)NC(=O)N(c3ccccc3)C4=O)cc2)nn1 [Compound I-18, N-{4-[1-(26-{5-[(3aS,4S,6aR)-2-oxo-hexahydro-1H-thieno[3,4-d]imidazol-4-yl]pentanamido}-3,6,9,12,15,18,21,24-octaoxahexacosan-1-yl)-1H-1,2,3-triazol-4-yl]phenyl}-2,4-dioxo-3-phenyl-1,3,8-triazaspiro[4.5]decane-8-carboxamide]	D (a relative luminescence value (RLU) of 1-1,000)									D (a relative luminescence value (RLU) of 1-1,000)		B (a normalized phagocytosis score of 1.5-2.0)
O=C(CCCC[C@@H]1SC[C@@H]2NC(=O)N[C@@H]21)NCCOCCOCCOCCOCCOCCOCCOCCOCCn1cc(-c2ccc(OCC(=O)N3CCC(N4CC(=O)N(c5ccccc5)C4=O)CC3)cc2)nn1 [Compound I-19, 5-[(3aS,4S,6aR)-2-oxo-hexahydro-1H-thieno[3,4-d]imidazol-4-yl]-N-{26-[4-(4-{2-[4-(2,4-dioxo-3-phenylimidazolidin-1-yl)piperidin-1-yl]-2-oxoethoxy}phenyl)-1H-1,2,3-triazol-1-yl]-3,6,9,12,15,18,21,24-octaoxahexacosan-1-yl}pentanamide]	D (a relative luminescence value (RLU) of 1-1,000)	−1097 and −1078 and −689	−544 and −988 and −964	276 and 696 and −362	2048 and −50 and 349	2072 and 737 and 1622	1852 and 1310 and 797	40706 and 42386 and 41814	1266 and 122 and 3990	D (a relative luminescence value (RLU) of 1-1,000)		
